Results as given in US20230144436A1, “MUSCLE TARGETING COMPLEXES AND USES THEREOF FOR TREATING MYOTONIC DYSTROPHY” (Dyne Therapeutics, Inc., priority 2020, published 2023).

Tested on: DMPK
Test: DMPK knockdown by transfected antisense oligonucleotides in DM1 C15 myotubes at 0.5 nM and 50 nM
Format: cell-based
Conditions: 72 hours, qPCR; for Percent DMPK Reduction: relative to vehicle control; for Normalized DMPK Remaining: relative to vehicle control = 1.00
Description: Two hundred and thirty-six oligonucleotides for targeting DMPK were generated using in silico analysis. Each individual oligonucleotide was evaluated for their ability to target DMPK in cellulo at two doses—0.5 nM (low dose) and 50 nM (high dose).
Briefly, DM1 C15 immortalized myoblasts were cultured in T-75 flasks until near confluency (˜80% confluent). Myoblasts were then disrupted with trypsin and seeded into 96-well microplates at a density of 50,000 cells/well. Cells were allowed to recover overnight before the growth media was washed out and replaced with a no-serum media to induce differentiation into myotubes. Differentiation proceeded for seven days prior to treatment with DMPK-targeting oligonucleotides.
On day seven following induction of differentiation, DM1 C15 myotubes were transfected with an individual oligonucleotide using 0.3 μL of Lipofectamine MessengerMax per well. All oligonucleotides were tested at both 0.5 nM and 50 nM final concentrations in biological triplicates. After treatment with oligonucleotides, cells were incubated for 72 hours prior to being harvested for total RNA. cDNA was synthesized from the total RNA extracts and qPCR was performed to determine expression levels of DMPK in technical quadruplicate. All qPCR data were analyzed using a traditional […] method and were normalized to a plate-based negative control that comprised cells treated with vehicle control (0.3 μL/well Lipofectamine MessengerMax without any oligonucleotide). Results from these experiments are shown in Table 10. ‘Normalized DMPK Remaining’ for each antisense oligonucleotide in Table 10 refers to the expression level of DMPK in cell treated with said antisense oligonucleotide relative to the negative control that comprised cells treated with vehicle control (wherein the expression level of the negative control has been normalized to equal 1.00)

## 334 (CCAUGACAAUCUCCGCCAGG; chemistry not given here) [compound 334]
0.5 nM oligonucleotide
  Percent DMPK Reduction: 34.53%
  Normalized DMPK Remaining: 0.65
50 nM oligonucleotide
  Percent DMPK Reduction: 76.46%
  Normalized DMPK Remaining: 0.24

## 335 (UCCCCAAACUUGCUCAGCAG; chemistry not given here) [compound 335]
0.5 nM oligonucleotide
  Percent DMPK Reduction: 5.73%
  Normalized DMPK Remaining: 0.94
50 nM oligonucleotide
  Percent DMPK Reduction: 44.67%
  Normalized DMPK Remaining: 0.55

## 336 (GAUGUUGUCGGGUUUGAUGU; chemistry not given here) [compound 336]
0.5 nM oligonucleotide
  Percent DMPK Reduction: 10.06%
  Normalized DMPK Remaining: 0.90
50 nM oligonucleotide
  Percent DMPK Reduction: 42.42%
  Normalized DMPK Remaining: 0.58

## 337 (GUUUGCCCAUCCACGUCAGG; chemistry not given here) [compound 337]
0.5 nM oligonucleotide
  Percent DMPK Reduction: 34.36%
  Normalized DMPK Remaining: 0.66
50 nM oligonucleotide
  Percent DMPK Reduction: 54.49%
  Normalized DMPK Remaining: 0.46

## 338 (CGGACGGCCCGGCUUGCUGC; chemistry not given here) [compound 338]
0.5 nM oligonucleotide
  Percent DMPK Reduction: 5.42%
  Normalized DMPK Remaining: 0.95
50 nM oligonucleotide
  Percent DMPK Reduction: 30.41%
  Normalized DMPK Remaining: 0.70

## 339 (CUCCGCCAGGUAGAAGCGCG; chemistry not given here) [compound 339]
0.5 nM oligonucleotide
  Percent DMPK Reduction: 30.22%
  Normalized DMPK Remaining: 0.70
50 nM oligonucleotide
  Percent DMPK Reduction: 78.14%
  Normalized DMPK Remaining: 0.22

## 340 (GUACAGGUAGUUCUCAUCCU; chemistry not given here) [compound 340]
0.5 nM oligonucleotide
  Percent DMPK Reduction: 31.52%
  Normalized DMPK Remaining: 0.68
50 nM oligonucleotide
  Percent DMPK Reduction: 65.57%
  Normalized DMPK Remaining: 0.34

## 341 (AGGGCGUCUGCCCAUAGAAC; chemistry not given here) [compound 341]
0.5 nM oligonucleotide
  Percent DMPK Reduction: 13.23%
  Normalized DMPK Remaining: 0.87
50 nM oligonucleotide
  Percent DMPK Reduction: 58.98%
  Normalized DMPK Remaining: 0.41

## 342 (UGGCCACAGCGGUCCAGCAG; chemistry not given here) [compound 342]
0.5 nM oligonucleotide
  Percent DMPK Reduction: 29.59%
  Normalized DMPK Remaining: 0.70
50 nM oligonucleotide
  Percent DMPK Reduction: 69.44%
  Normalized DMPK Remaining: 0.31

## 343 (CGUAGUUGACUGGCGAAGUU; chemistry not given here) [compound 343]
0.5 nM oligonucleotide
  Percent DMPK Reduction: 25.26%
  Normalized DMPK Remaining: 0.75
50 nM oligonucleotide
  Percent DMPK Reduction: 61.52%
  Normalized DMPK Remaining: 0.38

## 344 (UCUGCCGCAGGGACAGCCGC; chemistry not given here) [compound 344]
0.5 nM oligonucleotide
  Percent DMPK Reduction: 22.97%
  Normalized DMPK Remaining: 0.77
50 nM oligonucleotide
  Percent DMPK Reduction: 82.10%
  Normalized DMPK Remaining: 0.18

## 345 (AAGCGCCUCCGAUAGGCCAG; chemistry not given here) [compound 345]
0.5 nM oligonucleotide
  Percent DMPK Reduction: 8.91%
  Normalized DMPK Remaining: 0.91
50 nM oligonucleotide
  Percent DMPK Reduction: 43.93%
  Normalized DMPK Remaining: 0.56

## 347 (GCUCAGCAGUGUCAGCAGGU; chemistry not given here) [compound 347]
0.5 nM oligonucleotide
  Percent DMPK Reduction: 29.18%
  Normalized DMPK Remaining: 0.71
50 nM oligonucleotide
  Percent DMPK Reduction: 73.46%
  Normalized DMPK Remaining: 0.27

## 348 (AUGAUCUUCAUGGCAUACAC; chemistry not given here) [compound 348]
0.5 nM oligonucleotide
  Percent DMPK Reduction: 12.76%
  Normalized DMPK Remaining: 0.87
50 nM oligonucleotide
  Percent DMPK Reduction: 39.97%
  Normalized DMPK Remaining: 0.60

## 349 (UUUGCCCAUCCACGUCAGGG; chemistry not given here) [compound 349]
0.5 nM oligonucleotide
  Percent DMPK Reduction: 32.79%
  Normalized DMPK Remaining: 0.67
50 nM oligonucleotide
  Percent DMPK Reduction: 59.36%
  Normalized DMPK Remaining: 0.41

## 350 (ACUUGCUCAGCAGUGUCAGC; chemistry not given here) [compound 350]
0.5 nM oligonucleotide
  Percent DMPK Reduction: 27.84%
  Normalized DMPK Remaining: 0.72
50 nM oligonucleotide
  Percent DMPK Reduction: 60.71%
  Normalized DMPK Remaining: 0.39

## 351 (UGAUGUCCCUGUGCACGUAG; chemistry not given here) [compound 351]
0.5 nM oligonucleotide
  Percent DMPK Reduction: 20.58%
  Normalized DMPK Remaining: 0.79
50 nM oligonucleotide
  Percent DMPK Reduction: 59.00%
  Normalized DMPK Remaining: 0.41

## 352 (AAAUACCGAGGAAUGUCGGG; chemistry not given here) [compound 352]
0.5 nM oligonucleotide
  Percent DMPK Reduction: 11.25%
  Normalized DMPK Remaining: 0.89
50 nM oligonucleotide
  Percent DMPK Reduction: 50.91%
  Normalized DMPK Remaining: 0.49

## 353 (GGCGAAUACACCCAGCGCCC; chemistry not given here) [compound 353]
0.5 nM oligonucleotide
  Percent DMPK Reduction: 19.77%
  Normalized DMPK Remaining: 0.80
50 nM oligonucleotide
  Percent DMPK Reduction: 68.72%
  Normalized DMPK Remaining: 0.31

## 354 (AGACAAUAAAUACCGAGGAA; chemistry not given here) [compound 354]
0.5 nM oligonucleotide
  Percent DMPK Reduction: 29.37%
  Normalized DMPK Remaining: 0.71
50 nM oligonucleotide
  Percent DMPK Reduction: 48.20%
  Normalized DMPK Remaining: 0.52

## 355 (CCCGUCUGCUUCAUCUUCAC; chemistry not given here) [compound 355]
0.5 nM oligonucleotide
  Percent DMPK Reduction: 20.31%
  Normalized DMPK Remaining: 0.80
50 nM oligonucleotide
  Percent DMPK Reduction: 43.97%
  Normalized DMPK Remaining: 0.56

## 356 (CUGCCUGCAGCAACUCCAUC; chemistry not given here) [compound 356]
0.5 nM oligonucleotide
  Percent DMPK Reduction: 23.10%
  Normalized DMPK Remaining: 0.77
50 nM oligonucleotide
  Percent DMPK Reduction: 46.69%
  Normalized DMPK Remaining: 0.53

## 357 (CCUCAGCCUCUGCCGCAGGG; chemistry not given here) [compound 357]
0.5 nM oligonucleotide
  Percent DMPK Reduction: 10.87%
  Normalized DMPK Remaining: 0.89
50 nM oligonucleotide
  Percent DMPK Reduction: 55.22%
  Normalized DMPK Remaining: 0.45

## 358 (GUGUCCGGAAGUCGCCUGCU; chemistry not given here) [compound 358]
0.5 nM oligonucleotide
  Percent DMPK Reduction: 22.99%
  Normalized DMPK Remaining: 0.77
50 nM oligonucleotide
  Percent DMPK Reduction: 73.65%
  Normalized DMPK Remaining: 0.26

## 359 (UGCACGUGUGGCUCAAGCAG; chemistry not given here) [compound 359]
0.5 nM oligonucleotide
  Percent DMPK Reduction: 10.81%
  Normalized DMPK Remaining: 0.89
50 nM oligonucleotide
  Percent DMPK Reduction: 64.18%
  Normalized DMPK Remaining: 0.36

## 360 (GACAAUAAAUACCGAGGAAU; chemistry not given here) [compound 360]
0.5 nM oligonucleotide
  Percent DMPK Reduction: 28.97%
  Normalized DMPK Remaining: 0.71
50 nM oligonucleotide
  Percent DMPK Reduction: 47.51%
  Normalized DMPK Remaining: 0.52

## 361 (GCCAUGACAAUCUCCGCCAG; chemistry not given here) [compound 361]
0.5 nM oligonucleotide
  Percent DMPK Reduction: 30.96%
  Normalized DMPK Remaining: 0.69
50 nM oligonucleotide
  Percent DMPK Reduction: 81.00%
  Normalized DMPK Remaining: 0.19

## 363 (CAUGACCAGGUACAGGUAGU; chemistry not given here) [compound 363]
0.5 nM oligonucleotide
  Percent DMPK Reduction: 19.39%
  Normalized DMPK Remaining: 0.81
50 nM oligonucleotide
  Percent DMPK Reduction: 59.09%
  Normalized DMPK Remaining: 0.41

## 364 (AGCGCCCACCAGUCACACUC; chemistry not given here) [compound 364]
0.5 nM oligonucleotide
  Percent DMPK Reduction: 30.36%
  Normalized DMPK Remaining: 0.70
50 nM oligonucleotide
  Percent DMPK Reduction: 63.67%
  Normalized DMPK Remaining: 0.36

## 365 (UCUCAGUGCAUCCAAAACGU; chemistry not given here) [compound 365]
0.5 nM oligonucleotide
  Percent DMPK Reduction: 10.88%
  Normalized DMPK Remaining: 0.89
50 nM oligonucleotide
  Percent DMPK Reduction: 51.34%
  Normalized DMPK Remaining: 0.49

## 366 (UUUGGGCAGAUGGAGGGCCU; chemistry not given here) [compound 366]
0.5 nM oligonucleotide
  Percent DMPK Reduction: 35.14%
  Normalized DMPK Remaining: 0.65
50 nM oligonucleotide
  Percent DMPK Reduction: 70.00%
  Normalized DMPK Remaining: 0.30

## 367 (GAUGUCCCUGUGCACGUAGC; chemistry not given here) [compound 367]
0.5 nM oligonucleotide
  Percent DMPK Reduction: 18.99%
  Normalized DMPK Remaining: 0.81
50 nM oligonucleotide
  Percent DMPK Reduction: 62.46%
  Normalized DMPK Remaining: 0.38

## 368 (CAGCAGUGUCAGCAGGUCCC; chemistry not given here) [compound 368]
0.5 nM oligonucleotide
  Percent DMPK Reduction: 25.67%
  Normalized DMPK Remaining: 0.74
50 nM oligonucleotide
  Percent DMPK Reduction: 51.97%
  Normalized DMPK Remaining: 0.48

## 369 (CAUGACAAUCUCCGCCAGGU; chemistry not given here) [compound 369]
0.5 nM oligonucleotide
  Percent DMPK Reduction: 29.45%
  Normalized DMPK Remaining: 0.71
50 nM oligonucleotide
  Percent DMPK Reduction: 70.52%
  Normalized DMPK Remaining: 0.29

## 370 (ACUUGUUCAUGAUCUUCAUG; chemistry not given here) [compound 370]
0.5 nM oligonucleotide
  Percent DMPK Reduction: 25.47%
  Normalized DMPK Remaining: 0.75
50 nM oligonucleotide
  Percent DMPK Reduction: 52.89%
  Normalized DMPK Remaining: 0.47

## 371 (GUGGAAUCCGCGUAGAAGGG; chemistry not given here) [compound 371]
0.5 nM oligonucleotide
  Percent DMPK Reduction: 30.55%
  Normalized DMPK Remaining: 0.69
50 nM oligonucleotide
  Percent DMPK Reduction: 49.34%
  Normalized DMPK Remaining: 0.51
